Assay results from PMC10786919, “Design-rules for stapled peptides with in vivo activity and their application to Mdm2/X antagonists” (Nature Communications, 2024).
≈ marks a conversion by molar mass, not a printed value. Read-outs that look alike come from different tables or passages of the source. Positions of bridges follow the written chain, without caps; N, C: chain ends. Non-standard residues stand in square brackets, D forms with d. Residues, ends and D or L forms follow the SMILES beside them. Lys(N3) = [N-]=[N+]=NCCCC[C@H](N)C(=O)O; R8 = C=CCCCCCC[C@@](C)(N)C(=O)O; Cba = N[C@@H](CC1CCC1)C(=O)O; S5 = C=CCCC[C@](C)(N)C(=O)O; βAla = NCCC(=O)O

How the values were obtained:
[1] = Lactate dehydrogenase (LDH) release assay; type: cell-based
How it was run: (§1)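 Geometric means of at least three independent biological runs are given for LDH release measured in HCT116 cells stably expressing a p53-driven β-lactamase reporter. Plating density was 8000 cells/well; DMSO in wells was 0.5%.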

[2] = in vitro
Text: Further, there have been several literature reports[18]–[20] that highlight that the combination of hydrophobic character and positive charge can result in mast cell degranulation (MCD), a potentially fatal condition[18]–[20]. […] The NanoClick assay[22] determines permeability of azide-labeled peptides by combining intracellular copper-free click chemistry with NanoBRET technology. Specifically, if an azido-peptide achieves cytosolic exposure, it will react with a cyclooctyne-decorated Halotag construct that is fused with nanoluciferase. This reaction blocks the click labelling of a subsequently added azido-labeled acceptor dye, thus decreasing the NanoBRET signal in a manner that is target-binding agnostic.
This assay was previously described in detail. The assay was performed in 384-well white assay plates (PerkinElmer CUSG03874) using assay-ready frozen cells that had been transiently transfected with the NanoLuc-HaloTag vector that were thawed at plated in complete media at a density of 6000 cells/ well and incubated at 37 °C 5% CO2 overnight. DIBAC-CA was diluted in assay buffer (OptiMem without phenol red + 1% FBS) and added to cells at a final concentration of 3 μM and incubated at 37 °C 5% CO2 for 1 h. Cells were subsequently centrifuged using a BlueWasher instrument (Blue Cat Bio) to remove the DIBAC-CA solution and washed two times with HBSS (Ca2 + , Mg2 + ). A volume of 30 μL of assay buffer was added back to cell plates. Peptides were serially diluted 4-fold in DMSO with a Hamilton Star apparatus and then delivered into assay plates with an acoustic liquid handler Labcyte ECHO (300 nl, 1% DMSO in-well concentration). After incubating cells with peptide for the desired time (4 or 18 h), the HaloTag ligand, NanoBret618-azide, was added to each well at a final concentration of 10 μM. […] Following addition of NanoBRET Nano-Glo Substrate, donor emission (450 nm) and acceptor emission (610 nm) were measured using an Envision instrument (PerkinElmer).

[3] = Solubility assay (kinetic solubility, PBS pH 7); type: physicochemical; settings: pH 7, PBS; for solubility kinetic: pH 7, aqueous buffer, kinetic from dmso stock, read-out: Solubility
Protocol: The standard reference solutions were prepared by diluting the 10 mM stock in 10:80:10 solution of acetonitrile:methanol:DMSO to 100 µM.
The solubility value is calculated by the following equation:
Solubility [µM] = (Peak area of sample/ Peak area of standard) (Standard concentration)

[4] = Experimental LogD (partition coefficient); settings: for logD: not stated, Partition Coeff LogD
[5] = system: HCT116 cells; assay: Lactate dehydrogenase (LDH) release assay; type: cell-based
How it was run: as §1

[6] = Nanoclick permeability assay EC50

| SMILES | EC50 ([1]; LDH: Cytotoxicity assay EC50) [µM] | cell entry EC50 [2, 6] [µM] | solubility kinetic [3] [µM] | logD [4] | also measured |
| --- | --- | --- | --- | --- | --- |
| CC(C)C[C@@H]1NC(=O)[C@H](C)NC(=O)[C@H](Cc2c[nH]c3ccccc23)NC(=O)[C@H](Cc2ccc(O)cc2)NC(=O)[C@H](CCC(=O)O)NC(=O)[C@](C)(NC(=O)[C@H](Cc2ccccc2)NC(=O)[C@H](CO)NC(=O)[C@@H](NC(=O)[C@H](CO)NC(=O)CNC(=O)[C@H](CO)NC(=O)[C@@H](N)CCCCN=[N+]=[N-])[C@@H](C)O)CCCCCCC=CCCC[C@@](C)(C(=O)N[C@@H](CCC(=O)O)C(=O)N[C@@H](CCC(=O)O)C(=O)N[C@@H](CCC(=O)O)C(N)=O)NC(=O)[C@H](CC(C)C)NC1=O [MP-951] (H-[Lys(N3)]SGSTSF[R8]EYWALL[S5]EEE-NH2; staple 8-15) | > 50 | 2.15 | 119 (≈ 261 µg/mL) | 1.94 | – |
| CC(=O)N[C@@H](CCCCN=[N+]=[N-])C(=O)NCCC(=O)N[C@@H](CC(C)C)C(=O)N[C@H](C(=O)N[C@@H](Cc1ccccc1)C(=O)N[C@]1(C)CCCCCCC=CCCC[C@@](C)(C(=O)N2CCC[C@H]2C(=O)N2CCC[C@H]2C(=O)N2CCC[C@H]2C(=O)N2CCC[C@H]2C(=O)N2CCC[C@H]2C(=O)N2CCC[C@H]2C(N)=O)NC(=O)[C@H](CC2CCC2)NC(=O)[C@H](CCC(N)=O)NC(=O)[C@H](C)NC(=O)[C@H](Cc2c[nH]c3ccccc23)NC(=O)[C@H](Cc2ccc(O)cc2)NC(=O)[C@H](CCC(=O)O)NC1=O)[C@@H](C)O [MP-093] | > 50.7 | 1.38 | 156 (≈ 363 µg/mL) | 2.28 | – |
| C[C@H](NC(=O)[C@H](C)NC(=O)[C@H](C)NC(=O)[C@]1(C)CCCC=CCCCCCC[C@@](C)(NC(=O)[C@H](Cc2ccccc2)NC(=O)[C@@H](NC(=O)[C@H](C)NC(=O)CCNC(=O)[C@H](CCCCN=[N+]=[N-])NC(=O)[C@H](C)NC(=O)[C@H](C)NC(=O)[C@H](CCCNC(=N)N)NC(=O)[C@H](CCCNC(=N)N)NC(=O)[C@H](CO)NC(=O)[C@H](CCCNC(=N)N)NC(=O)[C@H](CO)NC(=O)[C@H](CCCNC(=N)N)NC(=O)CN)[C@@H](C)O)C(=O)N[C@@H](C)C(=O)N[C@@H](Cc2ccc(O)cc2)C(=O)N[C@@H](Cc2c[nH]c3ccccc23)C(=O)N[C@@H](C)C(=O)N[C@@H](C)C(=O)N[C@@H](CC2CCC2)C(=O)N1)C(N)=O [MP-878] (H-GRSRSRRAA[Lys(N3)][βAla]ATF[R8]AYWAA[Cba][S5]AAA-NH2; staple 15-22) | – | 2.1 | – | 2.81 | Solubility [3]: Poorly Behaved |
| CC(C)C[C@@H]1NC(=O)[C@H](C)NC(=O)[C@H](Cc2c[nH]c3ccccc23)NC(=O)[C@H](Cc2ccc(O)cc2)NC(=O)[C@H](CCC(=O)O)NC(=O)[C@](C)(NC(=O)[C@H](Cc2ccccc2)NC(=O)[C@H](CO)NC(=O)[C@@H](NC(=O)[C@H](CO)NC(=O)CNC(=O)[C@H](CO)NC(=O)[C@H](CCCCN=[N+]=[N-])NC(=O)[C@H](CCC(=O)O)NC(=O)[C@H](CCC(=O)O)NC(=O)[C@@H](N)CCC(=O)O)[C@@H](C)O)CCCCCCC=CCCC[C@@](C)(C(N)=O)NC(=O)[C@H](CC(C)C)NC1=O [MP-948] (H-EEE[Lys(N3)]SGSTSF[R8]EYWALL[S5]-NH2; staple 11-18) | > 50 | > 10 | 112 (≈ 245 µg/mL) | 1.48 | – |
| CC(=O)N[C@@H](CCCCN=[N+]=[N-])C(=O)NCCC(=O)N[C@@H](CC(C)C)C(=O)N[C@H](C(=O)N[C@@H](Cc1ccccc1)C(=O)N[C@]1(C)CCCCCCC=CCCC[C@@](C)(C(=O)N[C@@H](C)C(=O)N[C@@H](C)C(=O)N[C@@H](CCC(=O)O)C(=O)N[C@@H](C)C(=O)N[C@@H](C)C(=O)N[C@H](C)C(N)=O)NC(=O)[C@H](CC2CCC2)NC(=O)[C@H](CCC(N)=O)NC(=O)[C@H](C)NC(=O)[C@H](Cc2c[nH]c3ccccc23)NC(=O)[C@H](Cc2ccc(O)cc2)NC(=O)[C@H](CCC(=O)O)NC1=O)[C@@H](C)O [MP-833] (Ac-[Lys(N3)][βAla]LTF[R8]EYWAQ[Cba][S5]AAEAA[dA]-NH2; staple 6-13) | – | – | 154 (≈ 343 µg/mL) | – | EC50 ([1]; 0% FBS 4Hr, read-out: LDH: Cytotoxicity assay EC50): > 50.7 µM; EC50 ([1]; 10% FBS 16Hr, read-out: LDH: Cytotoxicity assay EC50): > 50.7 µM; LDH: Cytotoxicity assay % Effect ([5]; 0% FBS 4Hr): 3.813%; LDH: Cytotoxicity assay % Effect ([5]; 10% FBS 16Hr): 10.68%; cell entry EC50 [2]: 1.02 µM |
| CC(C)C[C@@H]1NC(=O)[C@H](C)NC(=O)[C@H](Cc2c[nH]c3ccccc23)NC(=O)[C@H](Cc2ccc(O)cc2)NC(=O)[C@H](CCC(=O)O)NC(=O)[C@](C)(NC(=O)[C@H](Cc2ccccc2)NC(=O)[C@H](CO)NC(=O)[C@@H](NC(=O)[C@H](CO)NC(=O)CNC(=O)[C@H](CO)NC(=O)[C@H](CCCCN=[N+]=[N-])NC(=O)[C@H](CCC(=O)O)NC(=O)[C@H](CCC(=O)O)NC(=O)[C@@H](N)CCC(=O)O)[C@@H](C)O)CCCCCCC=CCCC[C@@](C)(C(=O)N[C@@H](CCC(=O)O)C(=O)N[C@@H](CC(N)=O)C(N)=O)NC(=O)[C@H](CC(C)C)NC1=O [MP-949] (H-EEE[Lys(N3)]SGSTSF[R8]EYWALL[S5]EN-NH2; staple 11-18) | > 50 | 4.35 | 104 (≈ 253 µg/mL) | 1.66 | – |
| CC(=O)N[C@@H](CCC(=O)O)C(=O)N[C@@H](CCC(=O)O)C(=O)N[C@@H](CCCCN=[N+]=[N-])C(=O)NCCCCCC(=O)N[C@H](C(=O)N[C@@H](CO)C(=O)N[C@@H](Cc1ccccc1)C(=O)N[C@]1(C)CCCCCCC=CCCC[C@@](C)(C(N)=O)NC(=O)[C@H](CC(C)C)NC(=O)[C@H](CC(C)C)NC(=O)[C@H](C)NC(=O)[C@H](Cc2c[nH]c3ccccc23)NC(=O)[C@H](Cc2ccc(O)cc2)NC(=O)[C@H](CCC(=O)O)NC1=O)[C@@H](C)O [MP-661] | > 50 | 0.546 | 27 (≈ 53.7 µg/mL) | 2.02 | – |
| CC[C@H](C)[C@H](NC(=O)[C@H](CC(C)C)NC(=O)[C@H](Cc1ccccc1)NC(=O)[C@@H](N)Cc1ccccc1)C(=O)N1CCC[C@H]1C(=O)N[C@@H](CCCCN)C(=O)NCC(=O)N[C@@H](CCCNC(=N)N)C(=O)N[C@@H](CCCNC(=N)N)C(=O)N[C@@H](CCCNC(=N)N)C(=O)N[C@@H](CCCNC(=N)N)C(=O)N[C@@H](CCCNC(=N)N)C(=O)N[C@@H](CCCNC(=N)N)C(=O)N[C@@H](CCCNC(=N)N)C(=O)N[C@@H](CCCNC(=N)N)C(=O)N[C@@H](CCCNC(=N)N)C(=O)N[C@@H](CCCCN=[N+]=[N-])C(=O)NCCC(=O)N[C@@H](CC(C)C)C(=O)N[C@H](C(=O)N[C@@H](Cc1ccccc1)C(=O)N[C@]1(C)CCCCCCC=CCCC[C@@](C)(C(=O)N[C@@H](CO)C(=O)N[C@@H](C)C(=O)N[C@@H](C)C(N)=O)NC(=O)[C@H](CC2CCC2)NC(=O)[C@H](CCC(N)=O)NC(=O)[C@H](C)NC(=O)[C@H](Cc2c[nH]c3ccccc23)NC(=O)[C@H](Cc2ccc(O)cc2)NC(=O)[C@H](CCC(=O)O)NC1=O)[C@@H](C)O [MP-656] (H-FFLIPKGRRRRRRRRR[Lys(N3)][βAla]LTF[R8]EYWAQ[Cba][S5]SAA-NH2; staple 22-29) | – | 0.544 | – | – | Solubility [3]: Poorly Behaved; Partition Coeff LogD [4]: Poorly Behaved |
| CC(=O)N[C@@H](CCCCN=[N+]=[N-])C(=O)NCCC(=O)N[C@@H](CC(C)C)C(=O)N[C@H](C(=O)N[C@@H](Cc1ccccc1)C(=O)N[C@]1(C)CCCCCCC=CCCC[C@@](C)(C(=O)N[C@@H](C)C(=O)N[C@@H](C)C(=O)N[C@@H](C)C(=O)O)NC(=O)[C@H](CC2CCC2)NC(=O)[C@H](CCC(N)=O)NC(=O)[C@H](C)NC(=O)[C@H](Cc2c[nH]c3ccccc23)NC(=O)[C@H](Cc2ccc(O)cc2)NC(=O)[C@H](CCC(=O)O)NC1=O)[C@@H](C)O [MP-684] | – | – | – | – | EC50 ([1]; 0% FBS 4Hr, read-out: LDH: Cytotoxicity assay: EC50): > 50.7 µM; EC50 ([1]; 10% FBS 16Hr, read-out: LDH: Cytotoxicity assay: EC50): > 50.7 µM; cell entry EC50 [2]: 0.496 µM |
